Experimental data reported in PMC6906394, “Radiomodifying action, Pharmacokinetic and Biodistribution of Ethyl 3, 4, 5-trihydroxybenzoate-Implication in development of radiomitigator” (Scientific Reports, 2019).
“Also recorded” adds a separate entry of the source.

What was measured:
[1] = system: whole body 60Co-gamma irradiated mice; assay: Liver and kidney function markers SGOT, SGPT, urea and creatinine after irradiation; format: in vivo
Method: (§1) Black C57BL/6 male mice weighing 28–30 g were maintained at the Institutional Animal Experimental Facility. Animals were fed according to standard chow diet having free access to food and water ad libitum. The environmental condition was maintained at room temperature (22 ± 2 °C), relative humidity (45–60%) and 12 h dark/light cycle controlled facility. In this study, mice were randomly assigned to four different groups (n = 21) i.e untreated control (UC), GAE-treated (GAE), Radiation + GAE (R + GAE), Radiation group (R). Mice fasted overnight with free access to water before being dosed. Isolated GAE from leaves was dissolved with distilled water and ethanol in (7:3 v/v) and administered orally at a dose of 200 mg/kg body weight to GAE-treated and R + GAE treated groups only. The experiment was carried out in accordance to regulation and guideline of the, Committee for the purpose of control and supervision of Experiments on animals (CPCSEA), and study was approved by Institutional Animal Experimental Committee (IAEC), Institute of Nuclear Medicine & Allied Science, Delhi, India.
Group I untreated control (UC), Group II GAE-treated (GAE), Group III Radiation + GAE (R + GAE) and Group IV Radiation (R) exposed. The GAE was administered orally 15 min post irradiation. The whole-body radiation (5 Gy) was carried out using Bhabahtron II, Telecobalt machine, Panacea medical technology, Bangalore. The mice exposed at a dose rate of 0.961 Gy/min at field 35 × 35 cm^2 and the distance maintained from the source was 80 cm.
SGOT and SGPT are a biomarker of liver function test used to assess liver function and its damage; whereas, urea and creatinine were used to investigate kidney function and its damage. These biomarkers were analyzed in-vitro by the use of commercially available kits of agape, Kerala, India. The assay were performed according to standard procedure mention in the kit protocol. In-vitro SGOT quantitative determination were based on the reaction of L-aspartate with alpha-ketoglutarate. According to the manufacturer protocol reagent were mix and incubated for 1 minute at 37 °C. The changes in absorbance were recorded per minute during 3 minutes. In-vitro kinetic determination of SGPT were based on the reaction of L-alanine with alpha-ketoglutarate. The reagent were mixed and incubated for 1 minute at 37 °C. the changes in absorbance was recorded per minute during 3 minutes at 340 nm. Urea is in-vitro quantitative determine by the method of Talke et al., 1965. Creatinine were in-vitro determined by kits and it can be measured by quionone pigment photometrically. Reagent were mixed and incubated for 5 minute at 37 °C. the sample absorbance and the standard against the reagent blank were measured at 546 nm.

[2] = system: NF-kB; assay: Quantification of NF-kB in liver and kidney by indirect ELISA; format: in vivo, mice; settings: GAE 200 mg/kg oral 15 min after 5 Gy whole body irradiation, p < 0.05, upto 8 h
Method: as §1, with “The experiment was carried out in accordance to regulation and guideline of the, Committee for the purpose of control and supervision of Experiments on animals (CPCSEA), and study was approved by Institutional Animal Experimental Committee (IAEC), Institute of Nuclear Medicine & Allied Science, Delhi, India.” left out
Measurement of NF-kB activity was done in accordance to the manufacturer’s protocol purchased from BD-biosciences. […] After development of colour 50 µl of stop solution was added to the wells and absorbance was recorded at 490 nm. A standard curve was prepared from the data produced from the serial dilution of the pure NF-kB proteins with concentration on the x-axis (log scale) vs absorbance on the Y-axis (linear).

[3] = system: NF-kB; assay: Immunofluorescent staining of NF-kB expression in liver and kidney sections; format: in vivo, mice; settings: R + GAE group, compared to irradiated group
Method: as §1
Group I untreated control (UC), Group II GAE-treated (GAE), Group III Radiation + GAE (R + GAE) and Group IV Radiation (R) exposed. The GAE was administered orally 15 min post irradiation. […]

[4] = R + GAE group (5 Gy, GAE 200 mg/kg oral 15 min post irradiation), 8 h
[5] = R + GAE group (5 Gy, GAE 200 mg/kg oral 15 min post irradiation), 24 h

With `CCOC(=O)c1cc(O)c(O)c(O)c1` [GAE, Ethyl 3,4,5-trihydroxybenzoate] the “change of SGOT, SGPT, urea and creatinine in serum compared to irradiated animals not receiving GAE” value ([1]; GAE 200 mg/kg b.wt oral 15 min post 5 Gy irradiation, P < 0.05) was “significant reduction”, the SGOT level [1, 4] was 24.10 ± 2.4 U/L and the SGPT level [1, 4] was 36.01 ± 6.1 U/L. For the same compound, the urea level [1, 4] was 18.16 ± 0.003 mg/dL, the SGOT level [1, 5] was 63.11 ± 6.16 U/L and the SGPT level [1, 5] was 62.15 ± 8.63 U/L. The creatinine level ([1]; R + GAE group (5 Gy, GAE 200 mg/kg oral 15 min post irradiation), upto 8 h) was 1.05 ± 0.04 mg/dL, the “duration of radiomodifying action” value ([1]; post irradiation (5 Gy), liver and kidney function biomarkers, efficacy reduced at 24 h) was ≤ 8 h and the “NF-kB level/expression in liver and kidney compared to irradiated mice” value [2] was “inhibits NF-kB expression; also recorded: significant minimal expression; also recorded: significantly inhibits; also recorded: significantly reduces”. For the same compound, the “NF-kB positive fluorescence expression” value [3] was “not strong; also recorded: not positive”.
